In patent US20180104224A1, “PHARMACEUTICAL COMPOSITIONS COMPRISING ANTIBACTERIAL AGENTS” (priority 2014, published 2018):

Key:
[1] = test system: highly resistant strains of Pseudomonas aeruginosa; experiment: MIC determination, all strains; type: cell-based; conditions: when used alone; highly resistant strains of P. aeruginosa
Method: (§1) The antibacterial activity of combinations according to the invention against resistant bacterial strains was investigated. Minimum Inhibitory Concentration (MIC) determination for the combinations according to invention was carried out in Muller Hinton Agar (MHA) (BD, USA) according to Clinical and Laboratory Standards Institute (CLSI) recommendations, (Clinical and Laboratory Standards Institute (CLSI), Performance Standards for Antimicrobial Susceptibility Testing, 20th Informational Supplement, M 100-S20, Volume 30, No. 1, 2010). In short, the test strains were adjusted to deliver about 10^4 CFU per spot with a multipoint inoculator (Applied Quality Services, UK). The plates were pored with MHA containing doubling concentration range of the test combinations according to invention. The plates were inoculated and were incubated at 35° C. for 18 hours.
The results on antibacterial activity of a carbapenem antibacterial agent selected from imipenem, meropenem, ertapenem and doripenem alone and in combination with Compound A or Compound B, against highly resistant strains of Pseudomonas aeruginosa are given in Table 1. […] For example, P. aeruginosa 2779 harbors resistance due to increased AmpC expression (300 times) and increased efflux; P. aeruginosa 1405 harbors resistance due to increased AmpC expression (600 times), reduced OprD expression and increased efflux; P. aeruginosa R 70 harbors resistance due to reduced OprD expression and increased efflux; and P. aeruginosa J 154 harbors resistance due to reduced OprD.

P. aeruginosa J 154 = experiment: MIC determination in Muller Hinton Agar (CLSI);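 as to MIC (mcg/ml) of carbapenem in presence of [A] at 4 mcg/ml: MIC read as lowest concentration giving complete growth inhibition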;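 as to MIC (mcg/ml) of carbapenem in presence of [B] at 4 mcg/ml: MIC read as lowest concentration giving complete growth inhibition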; type: cell-based, Pseudomonas aeruginosa; conditions: for MIC: Pseudomonas aeruginosa, J154, agent alone, P. aeruginosa J 154 [Reduced OprD]
Method: as §1

P. aeruginosa R 70 = experiment: MIC determination in Muller Hinton Agar (CLSI); type: cell-based, Pseudomonas aeruginosa; conditions: for MIC: Pseudomonas aeruginosa, R70, 18 h, agent alone, P. aeruginosa R 70 [Reduced OprD + increased efflux]
Method: as §1

[2] = test system: Pseudomonas aeruginosa 1405; experiment: Time kill study; type: cell-based; conditions: P. aeruginosa 1405; for effect on bacterial counts through out the duration of the study (in words): when used alone
Method: (§2) The synergistic killing effect of the combinations according to invention was studied by performing time kill studies. In a typical time kill study, the freshly grown cultures were diluted to the required cell density (initial starting inoculum) in Cation adjusted Muller Hinton broth medium (BD, USA). The antibacterial agents (either alone or in combination) at the required concentrations were added into the culture-containing medium. The samples were incubated under shaking condition (120 rpm) at 37° C. Enumeration of viable bacterial count was done every 2 hour by diluting in normal saline and plating on to the Tryptic Soya Agar plates (BD, USA). The plates were incubated for 24 hours to arrive at the viable bacterial count. The results are expressed in terms of Log10 CFU per ml. In general, the decrease of 1 Log10 CFU/ml, corresponds to 90% killing of bacteria.

[3] = test system: Pseudomonas aeruginosa R70; experiment: Time kill study; type: cell-based; conditions: P. aeruginosa R70; for effect on bacterial counts through out the duration of the study (in words): when used alone
Method: as §2

P. aeruginosa 1405 = experiment: MIC determination in Muller Hinton Agar (CLSI); type: cell-based, Pseudomonas aeruginosa;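 also: MIC read as lowest concentration giving complete growth inhibition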
Method: as §1

P. aeruginosa 2779 = experiment: MIC determination in Muller Hinton Agar (CLSI); type: cell-based, Pseudomonas aeruginosa;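 also: MIC read as lowest concentration giving complete growth inhibition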
Method: as §1

[4] = in presence of Compound A at 4 mcg/ml
[5] = in presence of Compound B at 4 mcg/ml

| SMILES | MIC values (in words) [1] | MIC (P. aeruginosa J 154) | MIC (P. aeruginosa R 70) | effect on bacterial counts through out the duration of the study (in words) [2] | Bacterial count (Log10 CFU/ml) 0 hour ([2]; Table 2, single agent 4 mcg/ml) | Bacterial count (Log10 CFU/ml) 2 hour ([2]; Table 2, single agent 4 mcg/ml) | Bacterial count (Log10 CFU/ml) 4 hour ([2]; Table 2, single agent 4 mcg/ml) | Bacterial count (Log10 CFU/ml) 6 hour ([2]; Table 2, single agent 4 mcg/ml) | effect on bacterial counts through out the duration of the study (in words) [3] | Bacterial count (Log10 CFU/ml) 0 hour ([2]; Table 3, single agent 4 mcg/ml) | Bacterial count (Log10 CFU/ml) 2 hour ([2]; Table 3, single agent 4 mcg/ml) | Bacterial count (Log10 CFU/ml) 4 hour ([2]; Table 3, single agent 4 mcg/ml) | Bacterial count (Log10 CFU/ml) 6 hour ([2]; Table 3, single agent 4 mcg/ml) | Bacterial count (Log10 CFU/ml) 0 hour ([3]; Table 5, single agent 2 mcg/ml) | Bacterial count (Log10 CFU/ml) 2 hour ([3]; Table 5, single agent 2 mcg/ml) | Bacterial count (Log10 CFU/ml) 4 hours ([3]; Table 5, single agent 2 mcg/ml) | Bacterial count (Log10 CFU/ml) 6 hour ([3]; Table 5, single agent 2 mcg/ml) | further results |
| --- | --- | --- | --- | --- | --- | --- | --- | --- | --- | --- | --- | --- | --- | --- | --- | --- | --- | --- |
| O=C(NNC(=O)[C@@H]1CC[C@@H]2CN1C(=O)N2OS(=O)(=O)O)[C@@H]1CCCNC1 [Compound A, trans-sulfuric acid mono-[2-(N′-[(R)-piperidin-3-carbonyl]-hydrazinocarbonyl)-7-oxo-1,6-diaza-bicyclo[3.2.1]oct-6-yl]ester] | higher MIC values | 16 µg/mL | 8 µg/mL | failed to reduce the bacterial counts | 6.84 Log10 CFU/ml | 6.81 Log10 CFU/ml | 7.84 Log10 CFU/ml | 8.06 Log10 CFU/ml | failed to reduce the bacterial counts | – | – | – | – | – | – | – | – | Bacterial count (Log10 CFU/ml) 0 hour ([2]; Table 2, single agent 8 mcg/ml): 6.84 Log10 CFU/ml; Bacterial count (Log10 CFU/ml) 2 hour ([2]; Table 2, single agent 8 mcg/ml): 6.48 Log10 CFU/ml; Bacterial count (Log10 CFU/ml) 4 hour ([2]; Table 2, single agent 8 mcg/ml): 7.4 Log10 CFU/ml; Bacterial count (Log10 CFU/ml) 6 hour ([2]; Table 2, single agent 8 mcg/ml): 7.54 Log10 CFU/ml; Bacterial count (Log10 CFU/ml) 0 hour ([3]; Table 4, single agent 4 mcg/ml): 6.62 Log10 CFU/ml; Bacterial count (Log10 CFU/ml) 2 hour ([3]; Table 4, single agent 4 mcg/ml): 7.07 Log10 CFU/ml; Bacterial count (Log10 CFU/ml) 4 hour ([3]; Table 4, single agent 4 mcg/ml): 8.35 Log10 CFU/ml; Bacterial count (Log10 CFU/ml) 6 hour ([3]; Table 4, single agent 4 mcg/ml): 8.48 Log10 CFU/ml; Bacterial count (Log10 CFU/ml) 0 hour ([3]; Table 4, single agent 8 mcg/ml): 6.62 Log10 CFU/ml; Bacterial count (Log10 CFU/ml) 2 hour ([3]; Table 4, single agent 8 mcg/ml): 6.9 Log10 CFU/ml; Bacterial count (Log10 CFU/ml) 4 hour ([3]; Table 4, single agent 8 mcg/ml): 7.11 Log10 CFU/ml; Bacterial count (Log10 CFU/ml) 6 hour ([3]; Table 4, single agent 8 mcg/ml): 7.16 Log10 CFU/ml |
| O=C(NNC(=O)[C@@H]1CC[C@@H]2CN1C(=O)N2OS(=O)(=O)O)[C@@H]1CCNC1 [Compound B, trans-sulfuric acid mono-[2-(N′-[(R)-pyrrolidin-3-carbonyl]-hydrazinocarbonyl)-7-oxo-1,6-diaza-bicyclo[3.2.1]oct-6-yl]ester] | higher MIC values | 8 µg/mL | 2 µg/mL | failed to reduce the bacterial counts | – | – | – | – | failed to reduce the bacterial counts | 6.81 Log10 CFU/ml | 6.54 Log10 CFU/ml | 6.65 Log10 CFU/ml | 6.7 Log10 CFU/ml | 6.44 Log10 CFU/ml | 7.11 Log10 CFU/ml | 7.3 Log10 CFU/ml | 7.6 Log10 CFU/ml | Bacterial count (Log10 CFU/ml) 0 hour ([2]; Table 3, single agent 2 mcg/ml): 6.81 Log10 CFU/ml; Bacterial count (Log10 CFU/ml) 2 hour ([2]; Table 3, single agent 2 mcg/ml): 6.48 Log10 CFU/ml; Bacterial count (Log10 CFU/ml) 4 hour ([2]; Table 3, single agent 2 mcg/ml): 7.6 Log10 CFU/ml; Bacterial count (Log10 CFU/ml) 6 hour ([2]; Table 3, single agent 2 mcg/ml): 7.5 Log10 CFU/ml; Bacterial count (Log10 CFU/ml) 0 hour ([3]; Table 5, single agent 4 mcg/ml): 6.44 Log10 CFU/ml; Bacterial count (Log10 CFU/ml) 2 hour ([3]; Table 5, single agent 4 mcg/ml): 6.2 Log10 CFU/ml; Bacterial count (Log10 CFU/ml) 4 hours ([3]; Table 5, single agent 4 mcg/ml): 6.4 Log10 CFU/ml; Bacterial count (Log10 CFU/ml) 6 hour ([3]; Table 5, single agent 4 mcg/ml): 6.0 Log10 CFU/ml |
| C[C@@H](O)[C@H]1C(=O)N2C(C(=O)O)=C(SCCN=CN)C[C@H]12 [Imipenem, imipenem] | – | 16 µg/mL | 8 µg/mL | – | 6.84 Log10 CFU/ml | 6.39 Log10 CFU/ml | 7.04 Log10 CFU/ml | 8.16 Log10 CFU/ml | – | 6.81 Log10 CFU/ml | 6.4 Log10 CFU/ml | 7.78 Log10 CFU/ml | 7.93 Log10 CFU/ml | 6.44 Log10 CFU/ml | 5.6 Log10 CFU/ml | 5.8 Log10 CFU/ml | 6.3 Log10 CFU/ml | MIC (mcg/ml) of carbapenem in presence of [A] at 4 mcg/ml (P. aeruginosa 1405; [4]): 1 µg/mL; MIC (mcg/ml) of carbapenem in presence of [B] at 4 mcg/ml (P. aeruginosa 1405; [5]): 1 µg/mL; MIC (mcg/ml) of carbapenem in presence of [A] at 4 mcg/ml (P. aeruginosa J 154; in presence of Compound A at 4 mcg/ml, P. aeruginosa J 154): 4 µg/mL; MIC (mcg/ml) of carbapenem in presence of [B] at 4 mcg/ml (P. aeruginosa J 154; in presence of Compound B at 4 mcg/ml, P. aeruginosa J 154): 0.5 µg/mL; MIC (mcg/ml) of carbapenem in presence of [A] at 4 mcg/ml (P. aeruginosa 2779; [4]): ≤0.25 µg/mL; MIC (mcg/ml) of carbapenem in presence of [B] at 4 mcg/ml (P. aeruginosa 2779; [5]): 0.12 µg/mL; MIC (mcg/ml) of carbapenem in presence of [A] at 4 mcg/ml (P. aeruginosa R 70; in presence of Compound A at 4 mcg/ml, P. aeruginosa R 70): 2 µg/mL; MIC (mcg/ml) of carbapenem in presence of [B] at 4 mcg/ml (P. aeruginosa R 70; in presence of Compound B at 4 mcg/ml, P. aeruginosa R 70): ≤0.12 µg/mL; Bacterial count (Log10 CFU/ml) 0 hour ([3]; Table 4, single agent 2 mcg/ml): 6.62 Log10 CFU/ml; Bacterial count (Log10 CFU/ml) 2 hour ([3]; Table 4, single agent 2 mcg/ml): 5.7 Log10 CFU/ml; Bacterial count (Log10 CFU/ml) 4 hour ([3]; Table 4, single agent 2 mcg/ml): 5.98 Log10 CFU/ml; Bacterial count (Log10 CFU/ml) 6 hour ([3]; Table 4, single agent 2 mcg/ml): 6.78 Log10 CFU/ml |
